Molecules are shown by their SMILES.

In experiment [1] the test system is rats. To be noted: icv administration (Thorsell et al. Neurosci. Lett. 2002); cited from earlier work.
Experiment [2] concerns the target T1, recombinant human NPY Y2 receptors (Homo sapiens, UniProt P49146).
T1 construct: expressed in transfected cells; host or cells: CHO-C4 cells (membrane preparation)
T1 sequence (P49146 1-381): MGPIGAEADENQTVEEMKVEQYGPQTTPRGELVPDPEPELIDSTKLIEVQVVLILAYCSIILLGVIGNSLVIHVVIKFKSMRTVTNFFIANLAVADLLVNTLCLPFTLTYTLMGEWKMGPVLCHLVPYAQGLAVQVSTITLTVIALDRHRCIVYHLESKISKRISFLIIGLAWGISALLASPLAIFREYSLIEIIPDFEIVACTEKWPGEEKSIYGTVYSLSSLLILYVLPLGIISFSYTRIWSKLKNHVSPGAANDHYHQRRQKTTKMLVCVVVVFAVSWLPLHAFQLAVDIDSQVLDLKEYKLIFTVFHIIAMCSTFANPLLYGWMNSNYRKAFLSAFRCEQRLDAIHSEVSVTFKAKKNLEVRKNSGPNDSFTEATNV
Briefly: Scintillation proximity [35S]GTPγS binding assay (inhibition of 0.5 nM NPY-stimulated [35S]GTPγS binding). The class given is biochemical. To be noted: 10 μM compound, membranes from CHO-C4 cells expressing recombinant human NPY Y2 receptors; for inhibition at 10 µM: read-out: [%] inhibiton at 10 μM. As for the experimental part:
Preparation of Membranes: CHO-C4 cells expressing recombinant human NPY Y2 receptors were used to prepare membranes for the GTPγS assay. Cells were grown to 80-95% confluency on 15-cm (225 cm^2) tissue culture plates. After aspiration of the culture medium, cells were washed twice with 18 ml ice-cold phosphate-buffered saline (PBS), scraped off and suspended in 3 ml ice-cold PBS in pre-cooled centrifuge tubes. The dishes were rinsed with 2 ml ice-old PBS per dish and the washings were combined with the PBS cell suspension from above. Cells pooled from 5-7 dishes were centrifuged for 5 min at 10,000 rpm (12,000 g) in a Sorvall RC5B centrifuge using an SS34 rotor at […]. The cell pellet was resuspended in 5 ml ice-cold buffer (20 mM HEPES, 10 mM EDTA; pH 7.4) by vortexing (2-5 sec), homogenized using a Polytron (step 4 for 20-30 sec), and ice-cold buffer added to 25 ml. The suspension was centrifuged again for 20 min at 18,000 rpm (39,000 g) at 4° C. and the pellet resuspended in 5 ml ice-cold buffer (20 mM HEPES, 0.1 mM EDTA; pH 7.4) by vortexing (2-5 sec), homogenized with a Polytron (step 4 for 10 sec), and ice-cold buffer added to 25 ml. The suspension was centrifuged a third time for 20 min at 18,000 rpm (39,000 g) at 4° C. The pellet was resuspend in 1 ml ice-cold buffer (20 mM Hepes, 0.1 mM EDTA; pH 7.4) by vortexing (5-8 sec). Two to five resuspended pellets were combined and homogenized using a Polytron (step 4 for 15-25 sec). A small aliquot (20-50 μl) was removed for protein determination by the Coomassie Plus Protein Assay Reagent (Pierce) using BSA as standard. The membrane suspension was aliquoted in precooled (on dry ice) Eppendorf tubes (0.25-1 ml/tube affording approximately 0.5-2 mg of membrane protein/tube). The pellets were frozen and stored at −80° C.
Scintillation proximity [^35S]GTPγS binding assay: Frozen membranes from CHO-C4 cells expressing recombinant human NPY Y2 receptors (2 mg for four 96-well plates) were thawed on ice. Thawed membranes were pipetted into 10 ml of assay buffer (20 mM HEPES, 10 mM MgCl2, 100 mM NaCl, pH 7.4) and homogenized briefly using a Polytron. The final assay mixture was prepared in 96-well microtiter plates (Isoplate Wallac, Perkin Elmer). The composition of the assay mixtures in a final volume of 250 μl per well was as follows: 20 mM HEPES, 10 mM MgCl2, 100 mM NaCl, pH 7.4, 30 μM GDP, 1 mg/ml BSA (added fresh), 5 μg membrane protein, 1.5 mg Wheatgerm agglutinin SPA beads (Amersham), 0.45 nM [^35S]GTPγS (Amersham, SJ1308, 1000 Ci/mmol, stabilized solution), and the test compounds (agonists and/or antagonists) at the appropriate concentrations. The samples were incubated at room temperature for 90 min by shaking, after which the SPA beads were sedimented by centrifugation in an Eppendorf 5804 centrifuge at 2700 rpm for 10 min at room temperature. After 60 min the plates were counted in a TopCount (Canberra). Basal [^35S]GTPγS binding was measured in the absence of agonist (NPY). Non-specific binding was measured in the presence of excess (10 μM) unlabelled GTPγS (Sigma). Nonspecific binding never exceeded 10% of basal binding and was thus not subtracted from the experimental data. Antagonists were tested for the inhibition of 0.5 nM NPY-stimulated [^35S]GTPγS binding. Antagonist inhibition curves were analyzed by non-linear regression using GraphPad Prism software (Version 4.0, GraphPad Software Inc., CA, USA).
Antagonistic activity of compounds of the present invention was examined by the Scintillation proximity [^35S]GTPγS binding assay as described above (inhibition of 0.5 nM NPY-stimulated [^35S]GTPγS binding). The table below represents percentages of inhibition at a concentration of 10 μM.

`N=C(N)NCCC[C@H](NC(=O)CC1(CC(=O)N2CCN(C3c4ccccc4NC(=O)c4ccccc43)CC2)CCCC1)C(=O)NCCn1c(=O)n(-c2ccccc2)n(-c2ccccc2)c1=O` (some centres unmarked) [BIIE0246]: the ethanol self-administration entry in experiment [1] was “dose dependently reduced ethanol self-administration”.

As for `CC1=NC(c2ccccc2)(c2ccccc2)C(=O)N1CC(=O)c1ccc(NC(=O)Nc2c(C)noc2C)cc1` [Compound 27, 1-(3,5-Dimethyl-isoxazol-4-yl)-3-{4-[2-(2-methyl-5-oxo-4,4-diphenyl-4,5-dihydro-imidazol-1-yl)-acetyl]-phenyl}-urea], the inhibition at 10 µM in experiment [2] was 100%.

Consider `COc1ccccc1CC(=O)Nc1ccc(C(=O)CN2C(=O)C(c3ccccc3)(c3ccccc3)N=C2C)cc1` [Compound 30, 2-(2-Methoxy-phenyl)-N-{4-[2-(2-methyl-5-oxo-4,4-phenyl-4,5-dihydro-imidazol-1yl)-acetyl]-phenyl}-acetamide], for which the “[%] inhibiton at 10 μM” value in experiment [2] is on record as 78%.

As to `CCC(CC)C(=O)Nc1ccc(C(=O)CN2C(=O)C(c3ccccc3)(c3ccccc3)N=C2C)c(F)c1` [Compound 33, 2-Ethyl-N-{3-fluoro-4-[2-(2-methyl-5-oxo-4,4-diphenyl-4,5-dihydro-imidazol-1-yl)-acetyl]-phenyl}-butyramide], the inhibition at 10 µM in experiment [2] stood at 60%.

For the molecule `CCC(CC)C(=O)Nc1ccc(C(=O)CN2C(=O)C(c3ccccc3)(c3ccccc3)N=C2C)cc1` [Compound 34, 2-Ethyl-N-{4-[2-(2-methyl-5-oxo-4,4-diphenyl-4,5-dihydro-imidazol-1-yl)-acetyl]-phenyl}-butyramide], the inhibition at 10 µM in experiment [2] was determined as 65%.
